One block for each compound: values may come before it.
Tests used:
Type in all cases: physicochemical
[1] = Drug content analysis via HPLC of extruded filaments and 3D printed tablets; conditions: percentage recovery of the active ingredient
Procedure: Filaments were prepared with the target concentration of components as detailed in Table III. 10 g of the dry ingredients (% weights according to Table III) was blended with 2 g of distilled non-ionised water (temporary plasticiser) using a mortar and pestle. The resulting blends were fed to a hot melt extruder at 90° C. and mixed at 100 rpm. A Thermo Scientific HAAKE MiniCTW hot melt extruder (Karlsruhe, Germany) was used to prepare the filaments. The filaments were dried for 1 hour at 100° C. in a drying and heating chamber (Binder Inc., series ED, Tuttinglen, Germany) and then used in 3D printing using the methodology described in Example 2 (i.e., nozzle temperature of 150° C.).
A HPLC method was developed and validated in order to assess the assay of the active substances in the extruded filaments and the 3D printed tablets. Each sample was accurately weighed (approximately 5 mg) and placed in a 1000 ml volumetric flask and dissolved in a mixture of water:acetonitrile:methanol (80:10:10). The solutions were then filtered through an Econofltr 0.2 μm syringe (Agilent Technologies Ltd., Cheadle, UK) and analysed by HPLC.
Lisinopril dihydrate, indapamide, rosuvastatin calcium and amlodipine content was assessed using Agilent UV-HPLC 1260 series (Agilent Technologies, Germany) equipped with a synergy max column (250×4.6 mm, 4 μm particle size), at temperature of 50° C. The analysis was carried out at 210 nm wavelength, flow rate 1 mL/min, injection volume was 100 μl and run time of 35 minutes. The mobile phase consisted of acetonitrile (A) and buffer pH3 (B) (which was prepared by adjustment of the pH of distilled water with phosphoric acid) according to the gradient in Table IV. Drug assay of the multi-layer polypill I (prepared from the uni-matrix) was assessed based on the assumption that each layer corresponds to an equal part of the tablet.

[2] = HPLC analysis of API content in filaments and 3D printed tablets after hot melt extrusion and FDM 3D printing; conditions: for Residual Percentage (potency of drug following HME): Filament; for Residual Percentage (potency of drug following HME and FDM 3D printing): Tablets
Procedure: Filaments containing individual drugs at different concentration were produced to achieve the individual target dose of each model drug. A Thermo Scientific HAAKE MiniCTW hot melt extruder (Karlsruhe, Germany) was used to prepare the filaments. Blank (drug-free) and individual drug loaded filaments were prepared by blending 10 g of dry ingredients (composition according to Table I) with additional 2 g of distilled water (temporary plasticiser) (Table 1) using mortar and pestle. This blend mixture was then fed to the hot melt extruder at 90° C. and mixed at 100 rpm, nozzle size of 1.5 mm. The filaments were extruded at the same temperature at 35 rpm. The extruded filaments were dried at 100° C. at 0% RH for 1 hour in a FD240 Binder heating chamber (Tuttlingen, Germany). For comparison purposes, a filament was also extruded without water at an extrusion temperature of 180° C. and a mixing rate of 100 rpm.
The tablets printed were designed using Autodesk® 3ds Max Design 2016 software version 18.0 (Autodesk, Inc., USA). The designs were then imported to the computer software in stereolithographic (STL) format. The extruded filaments were printed by a Makerbot 2×3D printer (Makerbot Industries, NY, USA) fitted with 0.4 mm nozzle and controlled by Simplify 3D software version 4.0 (Cincinnati, OH, USA). Printing took place using nozzle and building plate temperatures of 150 and 40° C. respectively. The tablets were printed following a concentric fill pattern and 100% infill with a layer thickness of 166 μm. For comparison reasons, tablets (without addition of water) were printed following the same settings as above but at nozzle temperature of 210° C.
The HPLC analysis was performed using Agilent 1260 series UV-HPLC (Agilent Technologies, Germany) equipped with a Synergi Polar column (250×4.6 mm, 4 μm particle size) (Phenomenex, Macclesfield, UK) at 35° C. The analysis was carried out at a detection wavelength of 254 nm, flow rate of 1 mL/min, injection volume of 100 μL and a 4 minute run time. The mobile phase consisted of a 1:1 mixture of solvent A (acetonitrile) and solvent B (water).
For theophylline, the same UV-HPLC system and column were used as detailed above for hydrocortisone. The mobile phase constituted of 10 mM solution of ammonium acetate buffer, methanol and acetonitrile (86:7:7). Analysis was carried out at a wavelength of 272 nm, temperature of 40° C., flow rate of 1 ml/min, injection volume of 5 μL and a run time of 7 min.
In order to examine the effect of hot melt extrusion (HME) and FDM 3D printing on the integrity of the active pharmaceutical ingredient (API), API-loaded filaments were analysed for API content post drying as well as in the 3D printed tablets. Samples (API loaded filaments or tablets) were accurately weighed and placed in 250 mL of 1:1 water:acetonitrile mixture for 2 hour under sonication. The solutions were filtered through 0.22 μm Millex-GP syringe filters (Merck Millipore, USA) and prepared for HPLC analysis.

[3] = HPLC analysis of hydrocortisone content in extruded filament and FDM 3D printed tablet at different drug loadings; conditions: for Drug potency in filament average ± SD (n = 3): Eudragit EPO filament, HME 90° C.; for Drug potency in FDM 3D printed average ± SD (n = 3): nozzle 135° C.
Procedure: Filaments were compounded according to the formulation in Table VIII using Thermo Fisher Haake MiniCTW compounder. The extruder speed was set at 35 rpm and temperature at 90° C.
Tablets were constructed with the pre-prepared filaments using a commercial FDM 3D printer equipped with 0.4 mm nozzle size. The templates used to print the tablets were designed in a caplet shape using Autodeski 3ds Maxi Design 2012 software version 14.0 (Autodesk, Inc., USA). The design was saved in a stereo-lithography (.stl) file format and was imported to the 3D software, MakerWare Version 3.9.1.1143 (Makerbot Industries, LLC., USA). Tablets were printed using modified settings of the software for PLA: as follows: type of printer: Replicator 2×; resolution: standard; speed of extruder 90 mm/s while extruding and 150 mm/s while traveling; infill: 100%; height of the layer: […]. No supports or rafts were utilized. The temperatures for the nozzle and build plate of the 3D printer were 135° C. and 60° C. respectively. Blue Scotch painter's tape was applied to the build platform to facilitate the adherence of the printed object during FDM 3D printing.
• Hydrocortisone content was assessed using HPLC using the following conditions: • Mobile phase: water:acetonitrile 1:1. • Stationary phase: Phenomenex® column Synergi Polar RP column with particle size 4 μm with 80 Å • pores, length of 250 mm • Column temperature: 35° C. • Injection Volume: 10 μL. • Flow rate: 1 mL/min • Detection: UV, 254 nm
The blend powder, the extruded filament or the printed tablet were placed into a 500 mL volumetric flask along with HCl. The flasks were sonicated for 30 minutes, followed by allowing the solutions to cool back to room temperature (approximately 30 minutes). A 10 mL syringe was filled with the resulting solution. A filter was added to the syringe; the first 5 mL was discarded, the second 5 mL used to fill a HPLC vial.

[4] = 3D printed at nozzle temperature 150° C.
[5] = HME 90° C., dried 1 hour at 100° C.
[6] = no temporary plasticiser, 180° C. for HME
[7] = temporary plasticiser (water), 90° C. for HME
[8] = no temporary plasticiser, 180° C. for HME followed by 210° C. for 3D-printing
[9] = temporary plasticiser, 90° C. for HME followed by 150° C. for 3D-printing
[10] = 3D printed at nozzle temperature 150° C., in %
[11] = HME 90° C., dried 1 hour at 100° C., in %

Structure (SMILES): CCOC(=O)C1=C(COCCN)NC(C)=C(C(=O)OC)C1c1ccccc1Cl (centres unmarked) [Amlodipine besylate, amlodipine besylate]
Drug contents in tablets, Amlodipine [1, 4]: 90.68 ± 2.28
Drug contents in filament, Amlodipine [1, 5]: 97.89 ± 1.94

Structure (SMILES): C[C@]12CCC(=O)C=C1CC[C@@H]1[C@@H]2[C@@H](O)C[C@@]2(C)[C@H]1CC[C@]2(O)C(=O)CO [Hydrocortisone]
Residual Percentage (potency of drug following HME) [2, 6]: 19.98%
Residual Percentage (potency of drug following HME) ([2]; no temporary plasticiser, 180° C. for HME, listed as hydrocortisone): 20%
Residual Percentage (potency of drug following HME) [2, 7]: 100.9%
Residual Percentage (potency of drug following HME) ([2]; temporary plasticiser (water), 90° C. for HME, listed as hydrocortisone): 100%
Residual Percentage (potency of drug following HME and FDM 3D printing) [2, 8]: 3.02%
Residual Percentage (potency of drug following HME and FDM 3D printing) ([2]; no temporary plasticiser, 180° C. for HME followed by 210° C. for 3D-printing, listed as hydrocortisone): 3.02%
Residual Percentage (potency of drug following HME and FDM 3D printing) [2, 9]: 48.6%
Residual Percentage (potency of drug following HME and FDM 3D printing) ([2]; temporary plasticiser, 90° C. for HME followed by 150° C. for 3D-printing, listed as hydrocortisone): 48.6%
Drug potency in filament average ± SD (n = 3) ([3]; Drug Concentration 1%): 85.97 ± 0.14%
Drug potency in FDM 3D printed average ± SD (n = 3) ([3]; Drug Concentration 1%): 75.13 ± 0.62%
Drug potency in filament average ± SD (n = 3) ([3]; Drug Concentration 5%): 92.25 ± 0.21%
Drug potency in FDM 3D printed average ± SD (n = 3) ([3]; Drug Concentration 5%): 95.4 ± 4.3%
Drug potency in filament average ± SD (n = 3) ([3]; Drug Concentration 10%): 99 ± 0.34%
Drug potency in FDM 3D printed average ± SD (n = 3) ([3]; Drug Concentration 10%): 98.2 ± 0.45%

Structure (SMILES): CC1Cc2ccccc2N1NC(=O)c1ccc(Cl)c(S(N)(=O)=O)c1 (centres unmarked) [Indapamide, indapamide]
Drug contents in tablets, Indapamide [1, 10]: 96.06 ± 2.06
Drug contents in filament, Indapamide [1, 11]: 93.32 ± 1.67

Structure (SMILES): NCCCC[C@H](N[C@@H](CCc1ccccc1)C(=O)O)C(=O)N1CCC[C@H]1C(=O)O [Lisinopril dihydrate]
Drug contents in tablets, Lisinopril [1, 4]: 87.8 ± 1.5
Drug contents in filament, Lisinopril [1, 5]: 93.9 ± 1.66

Now from value to compound:

Drug contents in tablets, Rosuvastatin [1, 10]: 95.4 ± 2.37
Drug contents in filament, Rosuvastatin [1, 11]: 98.2 ± 1.09
Structure (SMILES): CC(C)c1nc(N(C)S(C)(=O)=O)nc(-c2ccc(F)cc2)c1/C=C/[C@@H](O)C[C@@H](O)CC(=O)[O-].CC(C)c1nc(N(C)S(C)(=O)=O)nc(-c2ccc(F)cc2)c1/C=C/[C@@H](O)C[C@@H](O)CC(=O)[O-].[Ca+2] [Rosuvastatin calcium, rosuvastatin calcium]

Residual Percentage (potency of drug following HME) [2, 6]: 100.61%
Residual Percentage (potency of drug following HME) [2, 7]: 100%
Residual Percentage (potency of drug following HME and FDM 3D printing) [2, 8]: 100.53%
Residual Percentage (potency of drug following HME and FDM 3D printing) [2, 9]: 100.2%
Structure (SMILES): Cn1c(=O)c2[nH]cnc2n(C)c1=O [Theophylline]

Source: US12318488B2, “Solid dosage form production” (University of Central Lancashire, priority 2018, dated 2025)
